Test systems include UO-31 renal; SF-295 CNS; BT-549 breast; NCI-H522 lung; HS 578T breast; TK-10 renal; PC-3 prostate; A549 NSCLC; MCF7 breast; OVCAR-8 ovarian.
Assay in all cases: growth of human tumour cells (NCI), 48 h

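Cells were grown in 96-well plates and exposed to each compound for 48 hours at five concentrations; endpoints were interpolated linearly between bracketing concentrations, or set to the highest concentration if not reached. GI50: concentration for 50% inhibition of growth. TGI is the concentration that stops growth completely.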

On to `Cc1cc(I)cc(CNCCN(C)C)c1O`, for which the GI50 in the test with UO-31 renal was 60.5 µM; in the test with SF-295 CNS, 42.6 µM; in the test on BT-549 breast it was 37.5 µM; with NCI-H522 lung, above 86.3 µM; in the test on HS 578T breast it was 49.5 µM; with TK-10 renal it was above 91.6 µM. For the same compound, the GI50 in the test on PC-3 prostate is above 84 µM; in the test on A549 NSCLC it was 99.7 µM; in the test on MCF7 breast, above 100 µM; in the test on OVCAR-8 ovarian, above 100 µM. In addition, the TGI in the test with UO-31 renal was above 100 µM; in the test with SF-295 CNS, above 88.1 µM; in the test with BT-549 breast, above 100 µM; in the test with NCI-H522 lung, above 100 µM; in the test on HS 578T breast, above 100 µM; in the test with TK-10 renal it was above 100 µM. Moreover, the TGI in the test on PC-3 prostate, in the test on A549 NSCLC, in the test on MCF7 breast and with OVCAR-8 ovarian was above 100 µM throughout.
With `C=CC1(C)CCC2C(=CCC3C2(C)CC(O)C(O)C3(C)COC2OC(CO)C(O)C(O)C2O)C1` (centres undefined), the TGI in the test on UO-31 renal, in the test on SF-295 CNS, with BT-549 breast, with NCI-H522 lung, with HS 578T breast and with TK-10 renal was above 100 µM each time. Besides, the TGI in the test with PC-3 prostate, with A549 NSCLC, in the test on MCF7 breast and with OVCAR-8 ovarian was above 100 µM each time.
Consider `CN1CCN(Cc2ccc(NC(=O)c3cncc(C#Cc4cnc(N)c5ncccc45)c3)cc2C(F)(F)F)CC1`, for which the GI50 in the test with UO-31 renal is 0.242 µM; in the test with SF-295 CNS, 0.55 µM; with BT-549 breast, 5.1 µM; with NCI-H522 lung, 0.396 µM; in the test on HS 578T breast it was 0.213 µM; in the test with TK-10 renal, 0.686 µM. For the same compound, the GI50 in the test on PC-3 prostate was 0.584 µM; in the test with A549 NSCLC, 0.436 µM; in the test on MCF7 breast it was 0.723 µM; in the test on OVCAR-8 ovarian, 0.58 µM. Besides, the TGI stood at 1.21 µM in the test on UO-31 renal; 15.5 µM in the test on SF-295 CNS; 23.6 µM in the test with BT-549 breast; 8.49 µM with NCI-H522 lung; 1.68 µM in the test with HS 578T breast; 3.68 µM in the test on TK-10 renal. The TGI was found to be 16.9 µM in the test with PC-3 prostate, 2.52 µM in the test on A549 NSCLC, 2.92 µM in the test with MCF7 breast and 3.51 µM with OVCAR-8 ovarian.
As to `Cc1c(Cl)cccc1C(=O)Nc1nc2c(s1)CN(C(=O)Nc1cccc(C(F)(F)F)c1)CC2`, the GI50 in the test with UO-31 renal was 0.508 µM; in the test on SF-295 CNS, 0.125 µM; in the test on BT-549 breast it was 0.547 µM; with NCI-H522 lung, 0.109 µM; in the test with HS 578T breast, 0.163 µM; with TK-10 renal, 1.56 µM. The GI50 was 0.143 µM in the test with PC-3 prostate, 0.33 µM in the test on A549 NSCLC, 0.145 µM in the test with MCF7 breast and 0.277 µM with OVCAR-8 ovarian. The TGI with UO-31 renal is above 50 µM; in the test with SF-295 CNS, above 41.6 µM; with BT-549 breast it was above 50 µM; with HS 578T breast it was above 50 µM; in the test with TK-10 renal, above 50 µM; in the test on PC-3 prostate, above 50 µM. For the same compound, the TGI in the test with A549 NSCLC, with MCF7 breast and in the test with OVCAR-8 ovarian was above 50 µM throughout.
For the compound `CC(=O)/C(=C\c1ccc(Cl)cc1)c1ccccc1`, the GI50 in the test with UO-31 renal is 1.02 µM; in the test with SF-295 CNS, 0.054 µM; in the test on BT-549 breast it was 0.107 µM; with NCI-H522 lung it was 0.0745 µM; with HS 578T breast it was 0.0832 µM; in the test with TK-10 renal, 2.76 µM. In addition, the GI50 in the test on PC-3 prostate was 0.0852 µM; in the test on A549 NSCLC, 0.255 µM; in the test on MCF7 breast, 0.0375 µM; in the test on OVCAR-8 ovarian, 0.304 µM. Besides, the TGI is above 57.9 µM in the test on UO-31 renal; above 100 µM in the test with SF-295 CNS; 0.946 µM in the test on BT-549 breast; 3.26 µM in the test with NCI-H522 lung; above 100 µM in the test with HS 578T breast; above 66.6 µM with TK-10 renal. Besides, the TGI with PC-3 prostate, with A549 NSCLC, in the test on MCF7 breast and in the test with OVCAR-8 ovarian was above 100 µM throughout.
Turning to `O=C(N/N=C/c1ccc(Cl)cc1)c1ccc(NC(=O)c2ccccn2)cc1`, the GI50 is 11.2 µM in the test on UO-31 renal; 28.7 µM in the test on SF-295 CNS; 25 µM in the test with BT-549 breast; 31.5 µM in the test with NCI-H522 lung; 21.1 µM in the test on HS 578T breast; 16.6 µM with TK-10 renal. The GI50 is 17 µM in the test on PC-3 prostate, 15.9 µM in the test with A549 NSCLC, 47.3 µM with MCF7 breast and 35.7 µM in the test on OVCAR-8 ovarian. Besides, the TGI was 38.2 µM with UO-31 renal; above 100 µM in the test on SF-295 CNS; 99.6 µM in the test with BT-549 breast; above 100 µM with NCI-H522 lung; above 100 µM with HS 578T breast; 46.8 µM in the test on TK-10 renal. Besides, the TGI in the test on PC-3 prostate was above 100 µM; in the test on A549 NSCLC, 68 µM; with MCF7 breast, above 100 µM; with OVCAR-8 ovarian, above 100 µM.
Regarding `CCN1CCN(CCC(=O)Nc2cccc(-n3cc(-c4ccncc4)c(-c4ccc(Cl)c(OC)c4)n3)c2)CC1`, the GI50 in the test with UO-31 renal was 0.922 µM; in the test on SF-295 CNS it was 0.36 µM; in the test on BT-549 breast, 1.38 µM; in the test with NCI-H522 lung, 0.275 µM; in the test on HS 578T breast, 0.454 µM; in the test on TK-10 renal it was 1.75 µM. For the same compound, the GI50 in the test on PC-3 prostate was 0.448 µM; in the test with A549 NSCLC, 0.593 µM; with MCF7 breast, 0.267 µM; with OVCAR-8 ovarian, 1.26 µM. Besides, the TGI with UO-31 renal came to 2.53 µM; in the test with SF-295 CNS it was 1.63 µM; in the test with BT-549 breast it was 4.43 µM; in the test on NCI-H522 lung it was 1.19 µM; in the test on HS 578T breast, 3.85 µM; in the test with TK-10 renal it was 5 µM. Also, the TGI was determined as 2.02 µM in the test on PC-3 prostate, 2.29 µM with A549 NSCLC, 1.45 µM with MCF7 breast and 3.82 µM in the test on OVCAR-8 ovarian.
Take `C[N+]1([O-])C2CCC1CC(OC(=O)C(CO)c1ccccc1)C2` (centres undefined): the TGI with UO-31 renal, in the test with SF-295 CNS, in the test on BT-549 breast, in the test with NCI-H522 lung, in the test on HS 578T breast and in the test on TK-10 renal was above 100 µM throughout. Besides, the TGI with PC-3 prostate, in the test on A549 NSCLC, in the test with MCF7 breast and with OVCAR-8 ovarian was above 100 µM in each case.

The values are drawn from PubChem BioAssay (NCI).
